From patent publication US20050256179A1, “Selective pharmacologic inhibition of protein trafficking and related methods of treating human diseases” (priority 2003, published 2005) come the findings set out here.

In brackets after ≈: the same amount, converted by molar mass. Where two headings read alike, the source gives them in different places. A value given as a limit tells only on which side of the number the result lay.

Assay type in all cases: cell-based
In one assay the test system is HCC 1806. As to the kind of experiment: Inhibition of tumor cell proliferation in vitro (SRB total protein). The note with it: Homo sapiens, HCC1806, 72 h, in-house head-to-head, about 72 hours, read-out: IC50. As to the method:
(§1) For a typical screening experiment, cells are inoculated into 96 well microtiter plates in 100 μl at plating densities ranging from 5,000 to 40,000 cells/well depending on the doubling time of individual cell lines. After cell inoculation, the microtiter plates are incubated at 37° C., 5% or 10% CO2—depending on the cell line and media—95% air and 100% relative humidity for 24 h prior to addition of experimental drugs. After 24 h, two plates of each cell line are fixed in situ with TCA, to represent a measurement of the cell population for each cell line at the time of drug addition. Following drug addition, the plates are incubated for an additional 48 h at 37° C., 5%/10% CO2, 95% air, and 100% relative humidity. For adherent cells, the assay is terminated by the addition of cold TCA. Cells are fixed in situ by the gentle addition of 50 μl of cold 50% (w/v) TCA (final concentration, 10% TCA) and incubated for 60 minutes at 4° C. The supernatant is discarded, and the plates are washed five times with tap water and air-dried. Sulforhodamine B (SRB) solution (10011) at 0.4% (w/v) in 1% acetic acid is added to each well, and plates are incubated for 10 minutes at room temperature. After staining, unbound dye is removed by washing five times with 1% acetic acid and the plates are air-dried. Bound stain is subsequently solubilized with 10 mM trizma base, and the absorbance is read on an automated plate reader at a wavelength of 515 nm. For suspension cells, the methodology is the same except that the assay is terminated by fixing settled cells at the bottom of the wells by gently adding 50 μl of 80% TCA (final concentration, 16% TCA). Using the seven absorbance measurements [time zero, control growth, and test growth in the presence of drug at the five concentration levels], the percentage growth is calculated at each of the drug concentrations levels.
(§2) Brefeldin A was tested by the NCI for inhibition of tumor cell proliferation in the 60-cell screen. The NCI 60-cell screen was performed essentially as described for FIG. 9. Data available from the NCI database for Brefeldin A was compared with more recent AVP 893 data. […] Several tumor cell lines were cultured in the presence of either AVP 893 or Brefeldin A for about 72 hours before assessing proliferation response by measuring total protein (SRB), as described for FIG. 9. The results of the head-to-head comparisons performed in-house also show substantial variation in the relative proliferative responses of cells to Brefeldin A and AVP 893 in vitro (TABLE 3).

For another assay, the system named is MOLT-4. The description is as above. The note with it: Homo sapiens. As to the method: as §1, §2
The next assay deals with OVCAR3. The description is as above. The note with it: Homo sapiens. As to the method:
as §1, §2

For the next assay, the system named is SW480. Described as above. The note with it: Homo sapiens, column Avanir, read-out: IC50 (ng/ml), Avanir. As to the method: as §1, §2
The subject of a further assay is Rab1b. As to the kind of experiment: Rab1b expression by Western blotting. As to the method:
Protein samples (in sample buffer) were boiled for 1-3 minutes and put on ice. Same amount of protein were loaded on the NuPage gel (InVitrogen). After the electrophoresis was complete, proteins were transferred from the gel to a PVDF membrane using the electro-blotting apparatus from InVitrogen; the voltage was set to 25 for 2-3 hr. Block non-specific binding by incubating membrane with 5% milk (in PBS, 0.1% tween 20) for at least 30 min at room temperature or overnight at 4° C. The blocked membrane was incubated with primary antibody (See TABLE 2) diluted in 5% milk for 1 hour at room temperature. Optimal antibody dilution depends on the company, the amount of protein. Dilutions of 1:1000 were generally used for the primary antibodies from Santa Cruz. The membrane was washed with PBS, 0.1% tween 3-4 times 5 mins. The membrane was incubated for 30-60 minutes at room temperature with horseradish peroxidase (HRP) conjugated secondary antibody diluted in 5% milk. We usually used 1:4000 dilution for the secondary antibody from Santa Cruz. The membrane was washed 3-4 times with PBS, 0.1% tween, each time 15 minutes. The detection solutions A and B were mixed in a ratio 40:1 and Pipetted onto the membrane, and incubated for 5 min at RT. A sheet of Hyper film ECL was placed on the top of the membrane in the dark and exposed for 1 min, or adjust accordingly. […]

The subject of another assay is GS15. Briefly: GS15 expression in 3T3 cells. The note with it: beginning around 2 to 4 hrs of exposure. From the text:
Likewise, the non-resident golgi protein Rab6 appeared to be unaffected in some cell types, as illustrated in FIG. 31.

For another assay, the system named is GS28 mRNA. As to the kind of experiment: GS28 mRNA by RT-PCR in human PBL. The note with it: 3 to 16 hours following addition of drug. As to the method:
Human buffy coats were purchased from the San Diego Blood Bank. Buffy Coat was purified of red blood cells using Histopaque-1077 following Sigma Diagnostic protocol. Lymphocytes (20 million) were then cultured in 75 cm2 flasks in cDMEM (+/−stimulus & AVP 893) for either 4 or 24 hrs. Cells were harvested and reconstituted in a Guanidine/Phenol solution essentially as described by Maniatis. The aqueous layer was removed and washed with Guanidine solution and finally 70% EtOH. RNA purity was checked by spectrophotometer. RT-PCR (36 cycles) was performed following the RT-PCR One-Step protocol (Qiagen). Similar results were obtained when testing mRNA samples obtained from other cell sources (not shown).

Take `O=C(Nc1ccc(-c2nc3cc(NC(=O)C4CCCCC4)ccc3[nH]2)cc1)C1CCCCC1` [AVP 893]: the IC50 with HCC 1806 was 4 ng/mL (≈ 9 nM); in the assay with MOLT-4 (column Avanir, read-out: IC50 (ng/ml), Avanir) it was 0.001 ng/mL (≈ 0.00225 nM); with MOLT-4 (column NCI, read-out: IC50 (ng/ml), NCI), below 10 ng/mL; in the assay with MOLT-4 (in-house head-to-head, about 72 hours, SRB, read-out: IC50) it was 30 ng/mL (≈ 67.5 nM); in the assay with OVCAR3 (OVCAR-3, column Avanir, read-out: IC50 (ng/ml), Avanir), 200 ng/mL (≈ 450 nM); in the assay with OVCAR3 (OVCAR-3, column NCI, read-out: IC50 (ng/ml), NCI), 1000 ng/mL (≈ 2250 nM). Also, in the assay on SW480, the IC50 turned out to be 1500 ng/mL (≈ 3370 nM). For the same compound, the Rab1b expression entry in the assay on Rab1b (3T3 cells) was “not affected in 3T3 cells”; in the assay with Rab1b (spleen cells), “suppressed in spleen cells”. In the assay with GS15, the GS15 staining result is “greatly diminished”. For the same compound, the “level of GS28 mRNA” value in the assay on GS28 mRNA was “did not affect the level of GS28 mRNA”.
